In patent US20090233888A1, “TREATMENT OF DISEASE CONDITIONS THROUGH MODULATION OF HYDROGEN SULFIDE PRODUCED BY SMALL INTESTINAL BACTERIAL OVERGROWTH” (priority 2005, published 2009):

Assays:
SIBO = conditions: about 400 mg TID for about 10 days; cited from earlier work
[1] = test system: intestinal transit across the proximal gut; assay: Intestinal transit in dogs with duodenal and midgut fistulas; format: in vivo; conditions: last 30 min of 90-min perfusion, mean±SE, buffer control 53.77±5.96%
Description: The inventor determined the effect of hydrogen sulfide on intestinal transit. Five dogs were equipped with duodenal and midgut fistulas. With occluding Foley catheters in the distal limb of the 2 fistulas, the small intestine was compartmentalized into the proximal and distal ½ of the gut. The proximal gut was perfused with pH 7.0 phosphate buffer with 0 or 1 mM NaHS (a donor of H2S) at 2 ml/min while the distal gut was perfused with pH 7.0 phosphate buffer with 0 or 60 mM oleate at 2 ml/min for 90 minutes. 60 mM oleate was used to trigger the ileal brake response to slow intestinal transit. Intestinal transit across the proximal gut was measured by the cumulative % recovery of a radioactive marker out of the midgut fistula during the last 30 min of the 90-min perfusion (data=mean±SE).

[2] = inhaled; cited from earlier work
[3] = 100 patients, mild to moderate AD, doxycycline and rifampin together; cited from earlier work
[4] = single patient with HPS, enhanced oxygenation; cited from earlier work
[5] = rat model of HPS, chronic bile duct ligation; cited from earlier work
gut bacteria = conditions: Norfloxacin treatment; cited from earlier work

**Q.** Which “efficacy in achieving successful partial eradication of SIBO” value (SIBO) does the source give for CO[C@H]1/C=C/O[C@@]2(C)Oc3c(C)c(O)c4c(O)c(c5c(nc6cc(C)ccn65)c4c3C2=O)NC(=O)/C(C)=C\C=C\[C@H](C)[C@H](O)[C@@H](C)[C@@H](O)[C@@H](C)[C@H](OC(C)=O)[C@@H]1C [rifaximin] here?
**A.** Its value is 60-70%.

**Q.** For S [Hydrogen sulfide], which “Intestinal transit: cumulative % recovery of a radioactive marker out of the midgut fistula” value ([1]; H2S perfused in distal compartment) is on record?
**A.** Its value is 60.72±8.97%.

**Q.** What about the “Intestinal transit: cumulative % recovery of a radioactive marker out of the midgut fistula” value ([1]; H2S perfused in proximal compartment (1 mM NaHS, pH 7.0 phosphate buffer, 2 ml/min)) of the same molecule?
**A.** The value was 37.78±3.80%.

**Q.** And the “level that can be fatal (respiratory failure and pulmonary edema)” value [2]?
**A.** Its value is greater than 600 ppm.

**Q.** Which “Intestinal transit: cumulative % recovery of a radioactive marker out of the midgut fistula” value ([1]; fat (60 mM oleate) in distal 1/2 of gut, ileal brake) does the source give for CCCCCCCC/C=C\CCCCCCCC(=O)O [fat, oleate] here?
**A.** The value was 16.00±3.92%.

**Q.** With CO[C@H]1/C=C/O[C@@]2(C)Oc3c(C)c(O)c4c(O)c(c(/C=N/N5CCN(C)CC5)c(O)c4c3C2=O)NC(=O)/C(C)=C\C=C\[C@H](C)[C@H](O)[C@@H](C)[C@@H](O)[C@@H](C)[C@H](OC(C)=O)[C@@H]1C [rifampin] as the molecule, how does the cognitive worsening [3] read?
**A.** Its cognitive worsening is “reduce cognitive worsening”.

**Q.** Which results are given for COC(=O)[C@@H](N)CCCNC(=N)N[N+](=O)[O-] [L-NAME, nomega-nitro-L-arginine methylester]?
**A.** extra walking distance [4]: 92 M; hypoxia [5]: improved but did not correct hypoxia

**Q.** Which iNOS expression (gut bacteria) does the source give for CCn1cc(C(=O)O)c(=O)c2cc(F)c(N3CCNCC3)cc21 [Norfloxacin] here?
**A.** The iNOS expression was “normalized”.

**Q.** What about the “severity of intrapulmonary vascular dilatation, reduction” value (gut bacteria) of the same molecule?
**A.** Its value is “about ½”.
